Data: patent US7667052B2 (Eisai R&D Management Co., Ltd., priority 2003, dated 2010)

The compounds below were run on transcription from VEGF promoter (assay: VEGF transcription-suppressing activity, VEGF-PLAP reporter in U251/1-8 cell). Conditions: Homo sapiens, U-251, 18 h, read-out: IC50 values of VEGF transcription-suppressing activity (range given).
Type: cell-based
Excerpt: In order to prepare reporter system reflecting transcription from VEGF promoter, VEGF promoter sequence was cloned, and inserted in secretory alkali phosphatase (PLAP) vector to construct reporter vector.
In order to obtain the promoter region of human VEGF, VEGF genome was cloned from phage library. PCR primers having the sequences described in Sequence Numbers 1 and 2 were designed based on VEGF cDNA (GenBank accession number: X62568) and a fragment having about 340 bp was obtained by carrying out PCR. Human genome phage library (Human genomic library, Clontech Co.) was screened using this as a probe to obtain pUC18-VEGFA containing about 5.4 kb of VEGF 5′ flanking region. The pUC18-VEGFA was cleaved by KpnI/NheI, VEGF promoter region of about 2.3 kb obtained was inserted in the multi cloning site KpnI/NheI of secretory alkali phosphatase (PLAP) vector (Goto et al, Mol. Pharmacol., 49, 860-873, 1996), and thus, VEGF-PLAP vector was constructed.
The above-mentioned VEGF-PLAP vector was introduced in the U251 cell cultured in the DULBECCO-modified eagle medium (DMEM; manufactured by SIGMA Co., Ltd.) containing 10% fetal calf serum, and cultured in the presence of 1 mg/ml G418 (Merck Co.) to establish G418 resistant stable clone (U251/1-8 cell).
It was confirmed that U251/1-8 cell secreted PLAP under low oxygen (2% O2 incubator) in the same manner as in the report (Cell. Mol. Biol. Res. 40, 35-39, 1994) and was a reporter system reflecting the transcription from VEGF promoter. The screening of the compound suppressing VEGF production which was induced by low oxygen stimulation was carried out below using the clone.
In order to remove the influence of alkaline phosphates in serum, U251/1-8 cell was rinsed twice with the adequate amount of PBS (Phosphate buffered saline), diluted in the DMEM medium containing 10% of serum in which alkaline phosphates was inactivated by the treatment of 60° C. for 20 min., and dispensed in 96-well plates by 4×10^4 cells/180 μl.
After culturing at 37° C. overnight in a CO2 incubator (5% CO2), 20 μL of the above-mentioned incubation solution containing the test compound diluted with 3-fold succession was added, and then they were incubated in a low oxygen ([…]) incubator for 18 hours. With respect to the PLAP activity in the culture supernatants, 10 μl of the supernatants was added to 50 μl of 0.28 M Na2CO3—NaHCO3 buffer solution (pH 10.0, 8.0 mM MgSO4), and finally 50 μl of alkaline phosphatase substrate (LUMISTEIN, Genomescience Co.) was added. After reacting for one hour, the alkaline phosphatase activity of the PLAP was measured by detecting the chemical luminescence by a micro plate reader (Perkin-Elmer Co.).
The PLAP activity under usual oxygen was set as 0%, the PLAP activity of cell which was treated under low oxygen was set as 100%, and the concentration suppressing the PLAP activity by 50% was set as the IC50 value of PLAP.

Q: With `CCC(OC)C(C)C1OC1C(O)C(C)/C=C/C=C(\C)C1OC(=O)CC(O)CCC(C)(O)C(OC(C)=O)/C=C/C1C` (stereo not drawn) [B9, (8E,12E,14E)-7-Acetoxy-3,6,17-trihydroxy-21-methoxy-6,10,12,16,20-pentamethyl-18,19-epoxytricosa-8,12,14-trien-11-olide] as the compound, how does the IC50 read?
A: 0.5 to 100 nM

Same assay, conditions: Homo sapiens, U-251; U251/1-8 cell, PLAP activity, low oxygen 18 hours; read-out: IC50 values of VEGF transcription-suppressing activity (range given)

Q: For `CCC(O)C(C)C(I)C(O)CC(C)/C=C/C=C(\C)C1OC(=O)CC(O)CCC(C)(O)C(OC(C)=O)/C=C/C1C` (stereo not drawn) [B3-1, (8E,12E,14E)-7-Acetoxy-3,6,18,21-tetrahydroxy-19-iodo-6,10,12,16,20-pentamethyltricosa-8,12,14-trien-11-olide], which IC50 is on record?
A: 0.5 to 100 nM

Q: Which IC50 does the source give for `CCC(O)C(C)C(Br)C(O)CC(C)/C=C/C=C(\C)C1OC(=O)CC(O)CCC(C)(O)C(OC(C)=O)/C=C/C1C` (stereo not drawn) [B2-2, (8E,12E,14E)-7-acetoxy-19-bromo-3,6,18,21-tetrahydroxy-6,10,12,16,20-pentamethyltricosa-8,12,14-trien-11-olide] here?
A: 0.5 to 100 nM

Q: Which IC50 does the source give for `CCC(O)C(C)C1OC1CC(C)/C=C/C=C(\C)C1OC(=O)CC(O)CCC(C)(O)C(OC(=O)N2CC(C)NCC2C)/C=C/C1C` (stereo not drawn) [B67, (8E,12E,14E)-3,6,21-Trihydroxy-6,10,12,16,20-pentamethyl-7-((2,5-dimethylpiperazin-1-yl)carbonyl)oxy-18,19-epoxytricosa-8,12,14-trien-11-olide] here?
A: 0.5 to 100 nM

Q: Which IC50 does the source give for `CCC(O)C(C)C1OC1CC(C)/C=C/C=C(\C)C1OC(=O)CC(OC)CCC(C)(O)C(OC(C)=O)/C=C/C1C` (stereo not drawn) [B8-4, (8E,12E,14E)-7-acetoxy-6,21-dihydroxy-3-methoxy-6,10,12,16,20-pentamethyl-18,19-epoxytricosa-8,12,14-trien-11-olide] here?
A: 0.5 to 100 nM

Q: With `CCC(O)C(C)C1OC1CC(C)/C=C/C=C(\C)C1OC(=O)CC(O)CCC(C)(O)C(OC(=O)NCCCN2CCOCC2)/C=C/C1C` (stereo not drawn) [B60, (8E,12E,14E)-3,6,21-Trihydroxy-6,10,12,16,20-pentamethyl-7-N-(3-(morpholin-4-yl)propyl)carbamoyloxy-18,19-epoxytricosa-8,12,14-trien-11-olide] as the compound, how does the IC50 read?
A: 0.5 to 100 nM

Q: `CCCC(=O)OC1/C=C/C(C)C(/C(C)=C/C=C/C(C)CC2OC2C(C)C(O)CC)OC(=O)CC(O)CCC1(C)O` (stereo not drawn) [B42] was tested. Which IC50 did it give?
A: 0.5 to 100 nM

Q: With `CCC(O)C(C)C1OC1CC(C)/C=C/C=C(\C)C1OC(=O)/C=C\CCC(C)(O)C(OC(C)=O)/C=C/C1C` (stereo not drawn) [B43-2, (2Z,8E,12E,14E)-7-acetoxy-6,21-dihydroxy-6,10,12,16,20-pentamethyl-18,19-epoxytricosa-2,8,12,14-tetraen-11-olide] as the compound, how does the IC50 read?
A: 0.5 to 100 nM

Q: How did the IC50 turn out when `CCC(O)C(C)C1OC1CC(C)/C=C/C=C(\C)C1OC(=O)CC(O)CCC(C)(O)C(OC(=O)NCCN2CCOCC2)/C=C/C1C` (stereo not drawn) [B59, (8E,12E,14E)-3,6,21-Trihydroxy-6,10,12,16,20-pentamethyl-7-N-(2-(morpholin-4-yl)ethyl)carbamoyloxy-18,19-epoxytricosa-8,12,14-trien-11-olide] was run?
A: 0.5 to 100 nM

Q: For `CCC(O)C(C)C1OC1CC(C)/C=C/C=C(\C)C1OC(=O)CC(O)CCC(C)(O)C(OC(=O)NCCCN2CCN(C)CC2)/C=C/C1C` (stereo not drawn) [B78, (8E,12E,14E)-3,6,21-Trihydroxy-6,10,12,16,20-pentamethyl-7-N-(3-(4-methylpiperazin-1-yl)propyl)carbamoyloxy-18,19-epoxytricosa-8,12,14-trien-11-olide], which IC50 is on record?
A: 0.5 to 100 nM

Q: Which IC50 does the source give for `CCC(O)C(C)C1OC1CC(C)/C=C/C=C(\C)C1OC(=O)CC(O)CCC(C)(O)C(OC(=O)N2CCN(C)CC2)/C=C/C1C` (stereo not drawn) [B50, (8E,12E,14E)-3,6,21-Trihydroxy-6,10,12,16,20-pentamethyl-7-((4-methylpiperazin-1-yl)carbonyl)oxy-18,19-epoxytricosa-8,12,14-trien-11-olide] here?
A: 0.5 to 100 nM

Q: How did the IC50 turn out when `CCC(O)C(C)C1OC1CC(C)/C=C/C=C(\C)C1OC(=O)CC(O)CCC(C)(O)C(OC(=O)NCCOC)/C=C/C1C` (stereo not drawn) [B53, (8E,12E,14E)-3,6,21-Trihydroxy-7-(N-(2-methoxyethyl))carbamoyloxy-6,10,12,16,20-pentamethyl-18,19-epoxytricosa-8,12,14-trien-11-olide] was run?
A: 0.5 to 100 nM

Q: `CCC(OC(C)=O)C(C)C1OC1CC(C)/C=C/C=C(\C)C1OC(=O)/C=C\CCC(C)(O)C(OC(C)=O)/C=C/C1C` (stereo not drawn) [B43-1, (2Z,8E,12E,14E)-7,21-Diacetoxy-6-hydroxy-6,10,12,16,20-pentamethyl-18,19-epoxytricosa-8,12,14-trien-11-olide] was tested. Which IC50 did it give?
A: 0.5 to 100 nM

Q: How did the IC50 turn out when `CCC(O)C(C)C1OC1CC(C)/C=C/C=C(\C)C1OC(=O)CC(O)CCC(C)(O)C(OC(=O)NCCN2CCCCC2)/C=C/C1C` (stereo not drawn) [B63, (8E,12E,14E)-3,6,21-Trihydroxy-6,10,12,16,20-pentamethyl-7-N-(2-(piperidin-1-yl)ethyl)carbamoyloxy-18,19-epoxytricosa-8,12,14-trien-11-olide] was run?
A: 0.5 to 100 nM

Q: With `CCC(O)C(C)C1OC1CC(C)/C=C/C=C(\C)C1OC(=O)CC(O)CCC(C)(O)C(OC(=O)NCCCN(C)C)/C=C/C1C` (stereo not drawn) [B55, (8E,12E,14E)-7-(N-(3-Dimethylamino)propyl)carbamoyloxy-3,6,21-trihydroxy-6,10,12,16,20-pentamethyl-18,19-epoxytricosa-8,12,14-trien-11-olide] as the compound, how does the IC50 read?
A: 0.5 to 100 nM

Q: With `CCC(O)C(C)C(O)C(I)CC(C)/C=C/C=C(\C)C1OC(=O)CC(O)CCC(C)(O)C(OC(C)=O)/C=C/C1C` (stereo not drawn) [B3-2, (8E,12E,14E)-7-acetoxy-3,6,19,21-tetrahydroxy-18-iodo-6,10,12,16,20-pentamethyltricosa-8,12,14-trien-11-olide] as the compound, how does the IC50 read?
A: 0.5 to 100 nM

Q: With `CCC(O)C(C)C1OC1CC(C)/C=C/C=C(\C)C1OC(=O)CC(O)CCC(C)(O)C(OC(=O)N2CCOCC2)/C=C/C1C` (stereo not drawn) [B49, (8E,12E,14E)-3,6,21-Trihydroxy-6,10,12,16,20-pentamethyl-7-((morpholin-4-yl)carbonyl)oxy-18,19-epoxytricosa-8,12,14-trien-11-olide] as the compound, how does the IC50 read?
A: 0.5 to 100 nM

Q: How did the IC50 turn out when `CCC(O)C(C)C1OC1CC(C)/C=C/C=C(\C)C1OC(=O)CC(OC(=O)N2CCC(N3CCCCC3)CC2)CCC(C)(O)C(OC(C)=O)/C=C/C1C` (stereo not drawn) [B37-1] was run?
A: 0.5 to 100 nM

Q: How did the IC50 turn out when `CCC(O)C(C)C1OC1CC(C)/C=C/C=C(\C)C1OC(=O)CC(O)CCC(C)(O)C(OC(=O)N2CCCN(C)CC2)/C=C/C1C` (stereo not drawn) [B62, (8E,12E,14E)-3,6,21-Trihydroxy-6,10,12,16,20-pentamethyl-7-((4-methylhomopiperazin-1-yl)carbonyl)oxy-18,19-epoxytricosa-8,12,14-trien-11-olide] was run?
A: 0.5 to 100 nM

Q: `CCC(O)C(C)C1OC1CC(C)/C=C/C=C(\C)C1OC(=O)CC(O)CCC(C)(O)C(OC(=O)NCc2cccnc2)/C=C/C1C` (stereo not drawn) [B57, (8E,12E,14E)-3,6,21-Trihydroxy-6,10,12,16,20-pentamethyl-7-N-(3-pyridylmethyl)carbamoyloxy-18,19-epoxytricosa-8,12,14-trien-11-olide] was tested. Which IC50 did it give?
A: 0.5 to 100 nM

Q: How did the IC50 turn out when `CCC(O)C(C)C1OC1CC(C)/C=C/C=C(\C)C1OC(=O)CC(O)CCC(C)(O)C(OC(=O)NCc2ccncc2)/C=C/C1C` (stereo not drawn) [B58, (8E,12E,14E)-3,6,21-Trihydroxy-6,10,12,16,20-pentamethyl-7-N-(4-pyridylmethyl)carbamoyloxy-18,19-epoxytricosa-8,12,14-trien-11-olide] was run?
A: 0.5 to 100 nM

Q: With `CCC(O)C(C)C1OC1CC(C)/C=C/C=C(\C)C1OC(=O)CC(O)CCC(C)(O)C(OC(=O)N2CCC(O)CC2)/C=C/C1C` (stereo not drawn) [B48, (8E,12E,14E)-3,6,21-Trihydroxy-7-((4-hydroxypiperidin-1-yl)carbonyl)oxy-6,10,12,16,20-pentamethyl-18,19-epoxytricosa-8,12,14-trien-11-olide] as the compound, how does the IC50 read?
A: 0.5 to 100 nM

Q: Which IC50 does the source give for `CCC(OC)C(C)C1OC1CC(C)/C=C/C=C(\C)C1OC(=O)CC(O)CCC(C)(O)C(OC(C)=O)/C=C/C1C` (stereo not drawn) [B8-1, (8E,12E,14E)-7-Acetoxy-3,6-dihydroxy-21-methoxy-6,10,12,16,20-pentamethyl-18,19-epoxytricosa-8,12,14-trien-11-olide] here?
A: 0.5 to 100 nM

Q: How did the IC50 turn out when `CCC(O)C(C)C1OC1CC(C)/C=C/C=C(\C)C1OC(=O)CC(O)CCC(C)(O)C(OC(=O)NCCc2ccccn2)/C=C/C1C` (stereo not drawn) [B47, (8E,12E,14E)-3,6,21-Trihydroxy-6,10,12,16,20-pentamethyl-7-N-(2-(2-pyridyl)ethyl)carbamoyloxy-18,19-epoxytricosa-8,12,14-trien-11-olide] was run?
A: 0.5 to 100 nM
